Data set [1] addresses T1, calf intestinal alkaline phosphatase (Bos taurus, UniProt P19111). As to the kind of experiment: Alkaline phosphatase inhibition assay (spectrophotometric, p-NPP substrate). Format: biochemical. Conditions: Mean ± SEM, pH 9.5, 37 °C. As for the experimental part: The inhibitory activity of calf intestinal alkaline phosphatase was evaluated using spectrophotometric assay as previously reported in our studies[55]^,[56]. In addition, Kinetic mechanism analysis was conducted to determine the mechanism of inhibition. […] The detailed procedure for alkaline phosphate inhibition assay and kinetic mechanism analysis is given in supplementary file. […]
Alkaline phosphatase inhibition assay and kinetic mechanism analysis
The reaction mixture comprised of 50 mM Tris -HCl buffer (5 mM MgCl2, 0.1 mM ZnCl2 pH 9.5), the compound (0.1 mM with final DMSO 1% (v/v) and mixture was pre -incubated for 10 min by adding 5 µL of CIALP (0.025 U/mL). Then, 10 µL of substrate (0.5 mM p-NPP (para nitrophenyl phosphate disodium salt) was added to initiate the reaction and the assay mixture was incubated again for 30 min at 37 °C. The change in absorbance of released p-nitrophenolate was monitored at 405 nm, using a 96-well microplate reader (SpectraMax ABS, USA). All the experiments were repeated three times in a triplicate manner.
The Alkaline Phosphatase activities were calculated according to the following formula: […]

Data set [2] concerns the target T1, calf intestinal alkaline phosphatase. As to the kind of experiment: Kinetic mechanism analysis (Lineweaver-Burk plot). To be noted: for Km / Vmax: substrate para nitrophenyl phosphate disodium salt. It counts as biochemical. As for the experimental part:
The inhibitory activity of calf intestinal alkaline phosphatase was evaluated using spectrophotometric assay as previously reported in our studies[55]^,[56]. In addition, Kinetic mechanism analysis was conducted to determine the mechanism of inhibition. […] The detailed procedure for alkaline phosphate inhibition assay and kinetic mechanism analysis is given in supplementary file.
According to the EI and ESI constants, respectively, it was determined if the compounds had the ability to inhibit the free enzyme and the enzyme-substrate complex. Figure 4 illustrates a succession of straight lines obtained from the Lineweaver–Burk plot of the enzyme’s kinetic studies against the substrate para nitrophenyl phosphate disodium salt at various inhibitor doses (A).
Where ODcontrol and ODsample represents the optical v densities in the absence and presence of […]
The inhibitor 6g concentrations were used 0.00, 0.169, 0.337 and 0.674 µM, Substrate p-NPP concentrations were 10, 5, 2.5, 1.25, 0.625 and 0.3125 mM. Pre-incubation time and other conditions were same as described in alkaline phosphatase inhibition assay section. Maximal initial velocities were determined from initial linear portion of absorbances up to 10 minutes after addition of enzyme at per minute’s interval. The inhibition type on the enzyme was assayed by Lineweaver-Burk plot of inverse of velocities (1/V) versus inverse of substrate concentration 1/[S] mM-1. The EI dissociation constant Ki was determined by secondary plot of 1/V versus inhibitor […]
Information Classification: General

“Also recorded” adds a separate entry of the source.

A word on the IC50: it is the concentration at which inhibition is half-maximal. Broadly, the melting point is the temperature, or range, at which the solid turns liquid. One may read the Km as the concentration of substrate that gives half-maximal velocity. In general, Ki refers to a measure of affinity in units of concentration, obtained from inhibition or displacement.

T1 sequence (P19111 20-533): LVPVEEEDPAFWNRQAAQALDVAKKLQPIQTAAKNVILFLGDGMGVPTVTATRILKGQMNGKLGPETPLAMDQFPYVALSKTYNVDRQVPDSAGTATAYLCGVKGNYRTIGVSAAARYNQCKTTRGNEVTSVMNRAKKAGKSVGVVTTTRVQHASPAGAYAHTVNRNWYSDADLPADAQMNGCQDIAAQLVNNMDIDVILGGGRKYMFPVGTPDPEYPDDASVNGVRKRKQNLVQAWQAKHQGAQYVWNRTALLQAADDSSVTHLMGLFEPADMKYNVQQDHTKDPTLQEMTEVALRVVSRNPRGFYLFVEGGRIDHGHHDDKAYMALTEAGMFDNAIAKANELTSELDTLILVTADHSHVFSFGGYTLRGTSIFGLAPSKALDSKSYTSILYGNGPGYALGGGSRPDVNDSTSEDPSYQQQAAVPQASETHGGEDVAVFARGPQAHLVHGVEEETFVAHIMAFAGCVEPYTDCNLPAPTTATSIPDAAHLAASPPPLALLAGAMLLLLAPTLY

In data set [1], `CCCC(=O)/N=c1/scc(-c2ccc(Br)cc2)n1-c1cnc2ccccc2c1` [Compound 6a] came in with a half-inhibitory concentration (IC50) of 7.25 ± 0.435 µM.

On to `CCCCC(=O)/N=c1/scc(-c2ccc(Br)cc2)n1-c1cnc2ccccc2c1` [Compound 6b], for which the IC50 in data set [1] was 3.15 ± 0.251 µM.

As for `CCCCCC(=O)/N=c1/scc(-c2ccc(Br)cc2)n1-c1cnc2ccccc2c1` [Compound 6c, (E)-N-(4-(4-Bromophenyl)-3-(quinolin-3-yl)thiazol-2(3H)-ylidene)hexanamide], the melting point fell in the range of 181 to 182 °C. The half-inhibitory concentration (IC50) in data set [1] came to 4.24 ± 0.241 µM.

Turning to `CCCCCCC(=O)N=c1scc(-c2ccc(Br)cc2)n1-c1cnc2ccccc2c1` [Compound 6d], the melting point lay in the range of 188 to 190 °C. In addition, 0.886 ± 0.074 µM corresponded to half-maximal inhibition in data set [1] (IC50).

Consider `CCCCCCCC(=O)N=c1scc(-c2ccc(Br)cc2)n1-c1cnc2ccccc2c1` [Compound 6e], for which the IC50 in data set [1] worked out at 0.754 ± 0.055 µM.

In data set [1], `CCCCCCCCCC(=O)/N=c1/scc(-c2ccc(Br)cc2)n1-c1cnc2ccccc2c1` [Compound 6f] had an IC50 of 8.68 ± 0.908 µM.

`O=C(/N=c1/scc(-c2ccc(Br)cc2)n1-c1cnc2ccccc2c1)c1ccccc1` [Compound 6g, (E)-N-(4-(4-bromophenyl)-3-(quinolin-3-yl)thiazol-2(3H)-ylidene)benzamide] had a melting point of 217 to 220 °C. Besides, the IC50 in data set [1] was found to be 0.337 ± 0.015 µM. In data set [2] (6g concentration 0.169 µM), the Km is 310 µM and the Vmax was 0.00204 ΔA /Min. Moreover, in data set [2] (6g concentration 0.337 µM), the Michaelis-Menten constant (Km) came out at 310 µM and the Vmax is 0.00175 ΔA /Min. In data set [2] (6g concentration 0.674 µM), the Michaelis-Menten constant (Km) was found to be 310 µM and the Vmax is 0.00133 ΔA /Min. For the same compound, in data set [2] (Lineweaver-Burk plot), the Inhibition type result is “non-competitively; also recorded: Non-Competitive”. Besides, the Ki in data set [2] (secondary plot of slope vs inhibitor concentration, read-out: Ki (EI dissociation constant)) came out at 0.47 µM.

In the case of `Cc1ccc(C(=O)/N=c2/scc(-c3ccc(Br)cc3)n2-c2cnc3ccccc3c2)cc1` [Compound 6h], the melting point was in the range of 103 to 105 °C. Further, the midpoint of inhibition in data set [1], the IC50, lay at 6.3 ± 0.634 µM.

Take `O=C(/N=c1/scc(-c2ccc(Br)cc2)n1-c1cnc2ccccc2c1)c1ccc(Cl)cc1Cl` [Compound 6i, N-dichlorobenzamide quinolinyl iminothiazoline]: the IC50 in data set [1] was 0.957 ± 0.071 µM.

Take `O=C(/N=c1/scc(-c2ccc(Br)cc2)n1-c1cnc2ccccc2c1)c1cc([N+](=O)[O-])cc([N+](=O)[O-])c1` [Compound 6j, N-nitrobenzamide quinolinyl iminothiazoline]: the IC50 in data set [1] was 0.509 ± 0.036 µM.
